Values after ≈ are worked out from the molar mass of the structure shown.
Assays:
Type in all cases: functional
Escherichia coli = assay: Antimicrobial activity against Escherichia coli MTCC 443 after 24 hr by serial broth dilution method; conditions: MTCC 443, 24 h
Streptococcus pyogenes = assay: Antimicrobial activity against Streptococcus pyogenes MTCC 442 after 24 hr by serial broth dilution method; conditions: MTCC 442, 24 h
Pseudomonas aeruginosa = assay: Antimicrobial activity against Pseudomonas aeruginosa MTCC 1688 after 24 hr by serial broth dilution method; conditions: MTCC 1688, 24 h
Staphylococcus aureus = assay: Antimicrobial activity against Staphylococcus aureus MTCC 96 after 24 hr by serial broth dilution method; conditions: MTCC 96, 24 h
Candida albicans = assay: Antimicrobial activity against Candida albicans MTCC 227 after 72 hr by serial broth dilution method; conditions: MTCC 227, 72 h
Aspergillus clavatus = assay: Antimicrobial activity against Aspergillus clavatus MTCC 1323 after 72 hr by serial broth dilution method; conditions: MTCC 1323, 72 h
Aspergillus niger = assay: Antimicrobial activity against Aspergillus niger MTCC 282 after 72 hr by serial broth dilution method; conditions: MTCC 282, 72 h

Structure (SMILES)	MIC (Escherichia coli)	MIC (Streptococcus pyogenes)	MIC (Pseudomonas aeruginosa)	MIC (Staphylococcus aureus)	MIC (Candida albicans)	MIC (Aspergillus clavatus)	MIC (Aspergillus niger)
Nc1ccc(C2=CC(c3ccc(O)cc3)NC(S)=N2)cc1 (configuration not stated)	250 µg/mL (≈ 841 µM)	250 µg/mL (≈ 841 µM)					
COc1cc(C2C=C(c3ccc(N)cc3)N=C(S)N2)ccc1O (configuration not stated)	250 µg/mL (≈ 764 µM)	250 µg/mL (≈ 764 µM)					
Nc1ccc(C2=CC(c3ccccc3)NC(S)=N2)cc1 (configuration not stated)			250 µg/mL (≈ 888 µM)				
COc1ccc(C2C=C(c3ccc(N)cc3)N=C(S)N2)cc1 (configuration not stated)			250 µg/mL (≈ 803 µM)				
N#CCCCSC1=NC(c2ccc(N)cc2)=CC(c2ccccc2)N1 (configuration not stated)	500 µg/mL (≈ 1430 µM)	1000 µg/mL (≈ 2870 µM)	50 µg/mL (≈ 143 µM)	500 µg/mL (≈ 1430 µM)	1000 µg/mL (≈ 2870 µM)	1000 µg/mL (≈ 2870 µM)	100 µg/mL (≈ 287 µM)
N#CCCCSC1=NC(c2ccc(N)cc2)=CC(c2ccc(Cl)cc2)N1 (configuration not stated)	100 µg/mL (≈ 261 µM)	100 µg/mL (≈ 261 µM)	100 µg/mL (≈ 261 µM)	500 µg/mL (≈ 1310 µM)	1000 µg/mL (≈ 2610 µM)	100 µg/mL (≈ 261 µM)	500 µg/mL (≈ 1310 µM)
N#CCCCSC1=NC(c2ccc(N)cc2)=CC(c2ccccc2O)N1 (configuration not stated)	50 µg/mL (≈ 137 µM)	100 µg/mL (≈ 274 µM)	250 µg/mL (≈ 686 µM)	250 µg/mL (≈ 686 µM)	200 µg/mL (≈ 549 µM)	500 µg/mL (≈ 1370 µM)	100 µg/mL (≈ 274 µM)
N#CCCCSC1=NC(c2ccc(N)cc2)=CC(c2cccc(O)c2)N1 (configuration not stated)	500 µg/mL (≈ 1370 µM)	200 µg/mL (≈ 549 µM)	500 µg/mL (≈ 1370 µM)	250 µg/mL (≈ 686 µM)	50 µg/mL (≈ 137 µM)	500 µg/mL (≈ 1370 µM)	500 µg/mL (≈ 1370 µM)
N#CCCCSC1=NC(c2ccc(N)cc2)=CC(c2ccc(O)cc2)N1 (configuration not stated)	25 µg/mL (≈ 68.6 µM)	50 µg/mL (≈ 137 µM)	1000 µg/mL (≈ 2740 µM)	500 µg/mL (≈ 1370 µM)	500 µg/mL (≈ 1370 µM)	200 µg/mL (≈ 549 µM)	500 µg/mL (≈ 1370 µM)
N#CCCCSC1=NC(c2ccc(N)cc2)=CC(c2ccc([N+](=O)[O-])cc2)N1 (configuration not stated)	500 µg/mL (≈ 1270 µM)	500 µg/mL (≈ 1270 µM)	100 µg/mL (≈ 254 µM)	500 µg/mL (≈ 1270 µM)	500 µg/mL (≈ 1270 µM)	200 µg/mL (≈ 508 µM)	50 µg/mL (≈ 127 µM)
COc1cc(C2C=C(c3ccc(N)cc3)N=C(SCCCC#N)N2)ccc1O (configuration not stated)	25 µg/mL (≈ 63.4 µM)	100 µg/mL (≈ 253 µM)	100 µg/mL (≈ 253 µM)	250 µg/mL (≈ 634 µM)	100 µg/mL (≈ 253 µM)	100 µg/mL (≈ 253 µM)	100 µg/mL (≈ 253 µM)
Cc1ccccc1C1C=C(c2ccc(N)cc2)N=C(SCCCC#N)N1 (configuration not stated)	500 µg/mL (≈ 1380 µM)	1000 µg/mL (≈ 2760 µM)	250 µg/mL (≈ 690 µM)	1000 µg/mL (≈ 2760 µM)	1000 µg/mL (≈ 2760 µM)	1000 µg/mL (≈ 2760 µM)	500 µg/mL (≈ 1380 µM)
Cc1cccc(C2C=C(c3ccc(N)cc3)N=C(SCCCC#N)N2)c1 (configuration not stated)	1000 µg/mL (≈ 2760 µM)	500 µg/mL (≈ 1380 µM)	500 µg/mL (≈ 1380 µM)	1000 µg/mL (≈ 2760 µM)	1000 µg/mL (≈ 2760 µM)	1000 µg/mL (≈ 2760 µM)	500 µg/mL (≈ 1380 µM)
Cc1ccc(C2C=C(c3ccc(N)cc3)N=C(SCCCC#N)N2)cc1 (configuration not stated)	100 µg/mL (≈ 276 µM)	500 µg/mL (≈ 1380 µM)	500 µg/mL (≈ 1380 µM)	50 µg/mL (≈ 138 µM)	1000 µg/mL (≈ 2760 µM)	100 µg/mL (≈ 276 µM)	50 µg/mL (≈ 138 µM)
COc1ccc(C2C=C(c3ccc(N)cc3)N=C(SCCCC#N)N2)cc1 (configuration not stated)	100 µg/mL (≈ 264 µM)	500 µg/mL (≈ 1320 µM)	25 µg/mL (≈ 66.1 µM)	100 µg/mL (≈ 264 µM)	500 µg/mL (≈ 1320 µM)	50 µg/mL (≈ 132 µM)	200 µg/mL (≈ 528 µM)
CN(C)c1ccc(C2C=C(c3ccc(N)cc3)N=C(SCCCC#N)N2)cc1 (configuration not stated)	500 µg/mL (≈ 1280 µM)	1000 µg/mL (≈ 2550 µM)	250 µg/mL (≈ 638 µM)	250 µg/mL (≈ 638 µM)	1000 µg/mL (≈ 2550 µM)	1000 µg/mL (≈ 2550 µM)	500 µg/mL (≈ 1280 µM)
CC1(C)S[C@@H]2[C@H](NC(=O)[C@H](N)c3ccccc3)C(=O)N2[C@H]1C(=O)O [AMPICILLIN]	100 µg/mL (≈ 286 µM)	100 µg/mL (≈ 286 µM)	100 µg/mL (≈ 286 µM)	250 µg/mL (≈ 715 µM)			
COC1=CC(=O)C[C@@H](C)[C@]12Oc1c(Cl)c(OC)cc(OC)c1C2=O [GRISEOFULVIN]					500 µg/mL (≈ 1420 µM)	100 µg/mL (≈ 283 µM)	100 µg/mL (≈ 283 µM)

Reference: ChEMBL document CHEMBL3045303, “An efficient, solvent-free microwave-assisted synthesis and antimicrobial screening of 1,6-dihydropyrimidine analogues” (2012)
